Experiments:
[1] = system: angiotensin model of hypertensive rats; test: Invasive blood pressure recording in angiotensin II acute hypertension model; type: in vivo, male Wistar rats; conditions: for anti-hypertensive effect: current study, IV SNEDDS formulation, angiotensin II infused rats
Protocol: (§1) Six-week-old male Wistar rats with a weight of (250-275 g) were obtained from Zagazig University. They were kept in clear cages made of polypropylene and with good ventilation (3-4 rats in each cage), under constant environmental conditions of 22±2° C. temperature, 50-60% relative humidity and 12-h day and night cycle. Unlimited rodent pellet food and purified water were provided to the rats. The experimental design and animal handling procedures were as indicated by the guidelines of the Ethical Committee for Animal Handling at Zagazig University.
The blood pressure was recorded invasively in real. The rats were subjected to anesthesia with single intraperitoneal injection of 100 mg/kg ketamine and 10 mg/kg xylazine. Animals' body temperature was held at 37° C. by means of a rectal probe and automated heating pads. A micro-tip pressure volume catheter (PV catheter, SPR-901, Millar Instruments, Houston, Tex., USA) was inserted via a small opening into the right carotid artery. This instrument can continuously monitor the arterial pressure. The micro-tip catheter was linked via a Power Lab Data Interface to a computer running the Lab Chart professional software (v8.0, AD Instruments, Bella Vista, Australia) incorporating blood pressure (BP) module. Following a stabilization time of 5 min, readings were continuously recorded. The BP module was employed to monitor the systolic and diastolic blood pressure.
(§2) After 10 min (stabilization period) of basal recording of invasive blood pressure and ECG, angiotensin II (120 ng/min/kg) was slowly infused through the femoral vein using syringe pump and continued throughout the experiment duration.
(§3) Invasive blood hemodynamics and ECG were continuously recorded throughout the experiment. Saline (0.3 ml) was injected in time control experiments.
(§4) Values of the present study presented in form of mean ±SEM. Statistical analysis was carried out using the Prism 5 computer program (Graph Pad, USA). Statistical comparison was done using repeated measures Two way analysis of variance (ANOVA) followed by Bonferroni' post-hoc test of baseline-corrected data and P<0.05 was considered significant.

[2] = system: angiotensin model of hypertensive rats; test: Electrocardiogram (ECG) recording in angiotensin II acute hypertension model; type: in vivo, male Wistar rats; conditions: IV formulation
Protocol: as §1
A Powerlab® system (AD Instruments, Bella Vista, Australia) linked to a computer running the LabChart professional software with the ECG module was employed to record the standard surface ECG according to the methodology outlined in a previous report by our group. The ECG module quantitatively assesses the various elements of the ECG.
as §2, §3, §4

[3] = previous report; cited from earlier work
[4] = IV formulation, 10 min after doses 24 and 36 μg/kg, vs vehicle group, p<0.05
[5] = dose 36 μg/kg, vs vehicle group, p<0.05

SMILES | reflex tachycardia ([1]; IV SNEDDS containing 10% linoleic acid) | dicrotic notch pressure [1, 4] | pulse pressure [1, 4] | non-ejection duration ([1]; IV formulation, dose 36 μg/kg, vs vehicle group) | SDP difference (systolic blood pressure-dicrotic notch pressure difference) ([1]; IV formulation, doses 12, 24 and 36 μg/kg, vs vehicle group, p<0.05) | ejection duration ([1]; IV formulation, doses 24 and 36 μg/kg, vs vehicle group) | time to peak ([1]; IV formulation, vs vehicle group) | systolic blood pressure ([1]; IV linoleic acid SNEDDS formulation, 12, 24 and 36 μg/kg, 10 min after each dose, p<0.05) | diastolic blood pressure ([1]; IV linoleic acid SNEDDS formulation, significant at 24 and 36 μg/kg vs plain IV formulation, p<0.05) | anti-hypertensive effect [1] | heart rate ([1]; medicated IV formulation compared with the plain IV formulation) | JT interval ([2]; 12, 24, 36 μg/kg) | P-wave duration ([2]; 12, 24, 36 μg/kg) | PR interval ([2]; 12, 24, 36 μg/kg) | QTc interval ([2]; 12, 24, 36 μg/kg) | R wave amplitude [2, 5] | T wave amplitude [2, 5] | vasodilation activity [3]
COc1cc(-c2cc(=O)c3c(O)c(OC)c(OC)cc3o2)cc(OC)c1OC [Compound 1, umuhengerin] | without reflex tachycardia | significant reduction | significant reduction | significant increase | significant reduction | significant decrease | no change | gradual dose dependent reduction | gradual and reached a plateau with statistical significance | observed | did not produced any further effect | no significant effect | did not affect | did not affect | no significant effect | significant decrease | increase | significant vasodilation activity
COc1ccc(-c2cc(=O)c3c(O)cc(O)cc3o2)cc1OC [Compound 4, luteolin-3′,4′ -dimethyl ether] |  |  |  |  |  |  |  |  |  | lack of antihypertensive efficacy |  |  |  |  |  |  |  | significant vasodilation activity
